From US11759461B2, “Small molecule inhibitors of cancer stem cells and mesenchymal cancer types” (The Scripps Research Institute, priority 2017, dated 2023)

System: FOXC2-expressing HMLER cells
Experiment: Cell Titer Glo viability of FOXC2-HMLER cells (high throughput screen and 10-point response)
Format: cell-based
Details: Homo sapiens; scored relative to parent compound 2; 72 hours; read-out: Activity Score, inhibition of FOXC2-expressing HMLER cells by Formula II compounds
Description: For high throughput screening, FOXC2-HMLER and HMLER cells were plated at 10^3 cells per well in white 384-well plates in 50 μL of MEGM medium (Lonza). Cells were allowed to attach for one hour before compound was transferred to each well as a DMSO solution using a 100 nL pintool head affixed to a PerkinElmer FX instrument. After 72-hour incubation, 30 μL of a Cell Titer Glo solution (diluted 1:6 in water, Promega) was dispensed into each well and luminance values were recorded using an Envision plate reader. […] All other miniaturized, selective viability experiments were performed as above using the indicated growth medium.
More specifically, in the high throughput screening assay above, each cell line was plated at 1,000 cells per well in 384-well plates, treated for 72 hours with 2 μM of test compound, and the viability of each line was determined in parallel by Cell Titer Glo (Promega) luminance measurements.

For `COc1ccc2cc(CNc3ccc(C)cc3)c(=O)n(CC(=O)Nc3ccc(C)cc3)c2c1` [Compound 2AY], the IC50 was > 20 µM.
In the case of `COc1ccc(NCc2cc3ccc(OC)cc3n(CC(=O)Nc3ccccc3)c2=O)cc1` [Compound 2AZ], the IC50 is reported as > 20 µM.
In the case of `CCc1ccc(NCc2cc3cc4c(cc3n(CC(=O)Nc3c(C)cccc3C)c2=O)OCCO4)cc1` [Compound 2A], the IC50 is reported as < 1 µM.
With `COc1ccc2cc(CNc3ccccc3)c(=O)n(CC(=O)Nc3ccc(C)cc3Cl)c2c1` [Compound 2BA] the IC50 was > 20 µM.
In the case of `COc1cccc(CNC(=O)Cn2c(=O)c(CNc3ccccc3)cc3ccc(OC)cc32)c1` [Compound 2BB], the IC50 is reported as > 20 µM.
`COc1ccc2cc(CNc3ccccc3)c(=O)n(CC(=O)Nc3c(C)cc(C)cc3C)c2c1` [Compound 2BC] was tested, and the IC50 was > 20 µM.
In the case of `COc1ccc(NCc2cc3cc(OC)c(OC)cc3n(CC(=O)Nc3ccc(C)cc3)c2=O)cc1` [Compound 2BD], the IC50 is reported as > 20 µM.
`COc1ccc2c(c1)cc(CNc1ccc(OC)c(OC)c1)c(=O)n2CC(=O)Nc1ccccc1C` [Compound 2BE] was tested, and the IC50 was > 20 µM.
For `CC(=O)c1cccc(NC(=O)Cn2c(=O)c(CNc3ccc(C)cc3)cc3cc4c(cc32)OCCO4)c1` [Compound 2BF], the IC50 was > 20 µM.
In the case of `CCOC(=O)c1cccc(NC(=O)Cn2c(=O)c(CNc3ccccc3)cc3ccc(OC)cc32)c1` [Compound 2BG], the IC50 is reported as > 20 µM.
With `COc1ccc2cc(CNc3ccccc3)c(=O)n(CC(=O)Nc3ccc(F)cc3)c2c1` [Compound 2BH] the IC50 was > 20 µM.
In the case of `COc1ccc(CNC(=O)Cn2c(=O)c(CNc3ccccc3)cc3ccc(OC)cc32)cc1` [Compound 2BI], the IC50 is reported as > 20 µM.
With `COc1ccc2cc(CNc3ccc(C)cc3)c(=O)n(CC(=O)Nc3cc(C)cc(C)c3)c2c1` [Compound 2BJ] the IC50 was > 20 µM.
In the case of `COc1ccc(NCc2cc3ccc(OC)cc3n(CC(=O)Nc3ccc(F)cc3)c2=O)cc1` [Compound 2BK], the IC50 is reported as > 20 µM.
`CCc1ccccc1NC(=O)Cn1c(=O)c(CNc2ccccc2)cc2ccc(OC)cc21` [Compound 2BL] was tested, and the IC50 was > 20 µM.
With `COc1ccc(NCc2cc3ccc(C)cc3n(CC(=O)Nc3cccc(C)c3)c2=O)cc1OC` [Compound 2BM] the IC50 was > 20 µM.
For `CCc1ccc(NC(=O)Cn2c(=O)c(CNc3ccccc3)cc3ccc(OC)cc32)cc1` [Compound 2BN], the IC50 was > 20 µM.
`COc1ccc(NCc2cc3cc4c(cc3n(CC(=O)Nc3ccccc3C)c2=O)OCCO4)cc1` [Compound 2BO] was tested, and the IC50 was > 20 µM.
`COc1ccc(NCc2cc3cc4c(cc3n(CC(=O)Nc3ccc(C)cc3)c2=O)OCCO4)cc1` [Compound 2BP] was tested, and the IC50 was > 20 µM.
`COc1ccc(NC(=O)Cn2c(=O)c(CNc3ccc(C)cc3)cc3cc(OC)c(OC)cc32)cc1` [Compound 2BQ] was tested, and the IC50 was > 20 µM.
For `COc1ccc2cc(CNc3ccccc3)c(=O)n(CC(=O)Nc3cccc(F)c3)c2c1` [Compound 2BR], the IC50 was > 20 µM.
In the case of `COc1ccc2cc(CNc3ccccc3)c(=O)n(CC(=O)Nc3cc(Cl)ccc3OC)c2c1` [Compound 2BS], the IC50 is reported as > 20 µM.
In the case of `CCc1ccc(NCc2cc3ccc(OC)cc3n(CC(=O)Nc3cccc(Cl)c3)c2=O)cc1` [Compound 2BT], the IC50 is reported as > 20 µM.
For `COc1cccc(NC(=O)Cn2c(=O)c(CNc3ccc(C)cc3)cc3cc(OC)c(OC)cc32)c1` [Compound 2BU], the IC50 was > 20 µM.
For `COc1ccc(NCc2cc3ccc(OC)cc3n(CC(=O)Nc3ccccc3C)c2=O)cc1` [Compound 2BV], the IC50 was > 20 µM.
In the case of `COc1ccc2cc(CNc3ccccc3)c(=O)n(CC(=O)Nc3ccc(Br)cc3)c2c1` [Compound 2BW], the IC50 is reported as > 20 µM.
With `COc1ccc2cc(CNc3ccccc3)c(=O)n(CC(=O)Nc3cccc(Cl)c3)c2c1` [Compound 2BX] the IC50 was > 20 µM.
`COc1cccc(NC(=O)Cn2c(=O)c(CNc3ccccc3)cc3cc4c(cc32)OCCO4)c1` [Compound 2BY] was tested, and the IC50 was > 20 µM.
In the case of `COc1ccc2cc(CNc3ccc(C)cc3)c(=O)n(CC(=O)Nc3cccc(C(F)(F)F)c3)c2c1` [Compound 2BZ], the IC50 is reported as > 20 µM.
`CCOc1ccccc1NC(=O)Cn1c(=O)c(CNc2ccc(CC)cc2)cc2ccc(OC)cc21` [Compound 2B] was tested, and the IC50 was < 1 µM.
In the case of `COc1ccc2cc(CNc3ccccc3)c(=O)n(CC(=O)Nc3ccc(Cl)cc3)c2c1` [Compound 2CA], the IC50 is reported as > 20 µM.
With `COc1cc2cc(CNc3ccccc3)c(=O)n(CC(=O)Nc3ccc(C)cc3C)c2cc1OC` [Compound 2CB] the IC50 was > 20 µM.
`COc1ccc2cc(CNc3ccccc3)c(=O)n(CC(=O)Nc3cc(Cl)ccc3C)c2c1` [Compound 2CC] was tested, and the IC50 was > 20 µM.
`Cc1ccc(NCc2cc3cc4c(cc3n(CC(=O)Nc3cc(C)ccc3C)c2=O)OCCO4)cc1` [Compound 2CD] was tested, and the IC50 was > 20 µM.
For `COc1ccc2cc(CNc3ccc(C)cc3)c(=O)n(CC(=O)Nc3ccc4c(c3)OCCO4)c2c1` [Compound 2CE], the IC50 was > 20 µM.
`CCc1ccc(NCc2cc3cc(OC)c(OC)cc3n(CC(=O)Nc3ccccc3)c2=O)cc1` [Compound 2CF] was tested, and the IC50 was > 20 µM.
With `COc1cc2cc(CNc3ccccc3)c(=O)n(CC(=O)Nc3ccc(F)cc3)c2cc1OC` [Compound 2CG] the IC50 was > 20 µM.
With `CCc1cccc(NC(=O)Cn2c(=O)c(CNc3ccccc3)cc3ccc(OC)cc32)c1` [Compound 2CH] the IC50 was > 20 µM.
In the case of `CCc1ccc(NCc2cc3cc4c(cc3n(CC(=O)Nc3ccc(CC)cc3)c2=O)OCCO4)cc1` [Compound 2CI], the IC50 is reported as > 20 µM.
With `COc1cc2cc(CNc3ccc(C)cc3)c(=O)n(CC(=O)Nc3ccc(C(C)C)cc3)c2cc1OC` [Compound 2CJ] the IC50 was > 20 µM.
For `COc1ccc2cc(CNc3ccccc3)c(=O)n(CC(=O)Nc3ccc(C)c(C)c3)c2c1` [Compound 2CK], the IC50 was > 20 µM.
`CCc1ccc(NC(=O)Cn2c(=O)c(CNc3ccccc3)cc3cc(OC)c(OC)cc32)cc1` [Compound 2CL] was tested, and the IC50 was > 20 µM.
`COc1ccc(OC)c(NC(=O)Cn2c(=O)c(CNc3ccccc3)cc3ccc(C)cc32)c1` [Compound 2CM] was tested, and the IC50 was > 20 µM.
With `COc1cccc(NC(=O)Cn2c(=O)c(CNc3ccccc3)cc3cc(OC)c(OC)cc32)c1` [Compound 2CN] the IC50 was > 20 µM.
With `COc1ccc2cc(CNc3ccccc3)c(=O)n(CC(=O)Nc3ccc(C)c(Cl)c3)c2c1` [Compound 2CO] the IC50 was > 20 µM.
With `CCc1ccc(NCc2cc3ccc(OC)cc3n(CC(=O)Nc3ccccc3C)c2=O)cc1` [Compound 2CP] the IC50 was > 20 µM.
With `CCOc1ccc(NC(=O)Cn2c(=O)c(CNc3ccccc3)cc3ccc(C)cc32)cc1` [Compound 2CQ] the IC50 was > 20 µM.
`COc1ccc(NC(=O)Cn2c(=O)c(CNc3ccc(C)cc3)cc3cc4c(cc32)OCCO4)cc1` [Compound 2CR] was tested, and the IC50 was > 20 µM.
With `COc1ccc2cc(CNc3ccccc3)c(=O)n(CC(=O)Nc3ccccc3OC)c2c1` [Compound 2CS] the IC50 was > 20 µM.
For `CCc1ccc(NCc2cc3ccc(OC)cc3n(CC(=O)Nc3ccc(C)c(C)c3)c2=O)cc1` [Compound 2CT], the IC50 was > 20 µM.
`CCc1ccc(NC(=O)Cn2c(=O)c(CNc3ccc(C)cc3)cc3ccc(OC)cc32)cc1` [Compound 2CU] was tested, and the IC50 was > 20 µM.
In the case of `CCOc1ccc(NC(=O)Cn2c(=O)c(CNc3ccc(OC)cc3)cc3ccc(OC)cc32)cc1` [Compound 2CV], the IC50 is reported as > 20 µM.
In the case of `CCc1ccc(NCc2cc3ccc(OC)cc3n(CC(=O)Nc3ccc(CC)cc3)c2=O)cc1` [Compound 2CW], the IC50 is reported as > 20 µM.
For `COc1ccc2cc(CNc3ccccc3)c(=O)n(CC(=O)Nc3ccc(C(C)=O)cc3)c2c1` [Compound 2CX], the IC50 was > 20 µM.
For `COc1cc(NC(=O)Cn2c(=O)c(CNc3ccc(C)cc3)cc3ccc(OC)cc32)cc(OC)c1` [Compound 2CY], the IC50 was > 20 µM.
With `COc1cc2cc(CNc3ccccc3)c(=O)n(CC(=O)Nc3ccccc3C)c2cc1OC` [Compound 2CZ] the IC50 was > 20 µM.
For `CCOC(=O)c1ccccc1NC(=O)Cn1c(=O)c(CNc2ccccc2)cc2ccc(OC)cc21` [Compound 2C], the IC50 was < 1 µM.
`Cc1ccc(NCc2cc3cc4c(cc3n(CC(=O)Nc3ccccc3)c2=O)OCCO4)cc1` [Compound 2DA] was tested, and the IC50 was > 20 µM.
`COc1ccc2cc(CNc3ccccc3)c(=O)n(CC(=O)Nc3ccccc3Cl)c2c1` [Compound 2DB] was tested, and the IC50 was > 20 µM.
In the case of `CC(=O)c1ccc(NC(=O)Cn2c(=O)c(CNc3ccc(C)cc3)cc3cc4c(cc32)OCCO4)cc1` [Compound 2DC], the IC50 is reported as > 20 µM.
In the case of `COc1ccc2cc(CNc3ccccc3)c(=O)n(CC(=O)Nc3ccccc3F)c2c1` [Compound 2DD], the IC50 is reported as > 20 µM.
`CCc1ccc(NCc2cc3cc(OC)c(OC)cc3n(CC(=O)Nc3cccc(C)c3)c2=O)cc1` [Compound 2DE] was tested, and the IC50 was > 20 µM.
For `COc1ccc2cc(CNc3ccc(C)cc3)c(=O)n(CC(=O)Nc3ccc(F)cc3F)c2c1` [Compound 2DF], the IC50 was > 20 µM.
`Cc1ccc(NCc2cc3cc4c(cc3n(CC(=O)Nc3cccc(C)c3)c2=O)OCCO4)cc1` [Compound 2DG] was tested, and the IC50 was > 20 µM.
In the case of `COc1ccc(NC(=O)Cn2c(=O)c(CNc3ccccc3)cc3ccc(OC)cc32)cc1` [Compound 2DH], the IC50 is reported as > 20 µM.
`COc1cc2cc(CNc3ccc(C)cc3)c(=O)n(CC(=O)Nc3ccc(C)c(C)c3)c2cc1OC` [Compound 2DI] was tested, and the IC50 was > 20 µM.
In the case of `COc1cc2cc(CNc3ccc(C)cc3)c(=O)n(CC(=O)Nc3cc(C)cc(C)c3)c2cc1OC` [Compound 2DJ], the IC50 is reported as > 20 µM.
In the case of `CCc1ccc(NCc2cc3cc(OC)c(OC)cc3n(CC(=O)Nc3ccccc3C)c2=O)cc1` [Compound 2DK], the IC50 is reported as > 20 µM.
`CCc1ccc(NC(=O)Cn2c(=O)c(CNc3ccc(OC)cc3)cc3ccc(OC)cc32)cc1` [Compound 2DL] was tested, and the IC50 was > 20 µM.
In the case of `COc1ccc2cc(CNc3ccccc3)c(=O)n(CC(=O)Nc3ccccc3)c2c1` [Compound 2DM], the IC50 is reported as > 20 µM.
For `COc1ccc2cc(CNc3ccc(C)cc3)c(=O)n(CC(=O)Nc3cccc(F)c3)c2c1` [Compound 2DN], the IC50 was > 20 µM.
In the case of `COc1ccc(NC(=O)Cn2c(=O)c(CNc3ccccc3)cc3cc(OC)c(OC)cc32)cc1` [Compound 2DO], the IC50 is reported as > 20 µM.
`COc1cc2cc(CNc3ccccc3)c(=O)n(CC(=O)Nc3cc(Cl)ccc3C)c2cc1OC` [Compound 2DP] was tested, and the IC50 was > 20 µM.
